25 compounds from US9464084B2, “P2X7 modulators” (Janssen Pharmaceutica NV, priority 2013, dated 2016) can be followed below.

In assay [1] the target is P2X7 (Homo sapiens (Human), UniProt Q99572). Kind of assay: P2X7 antagonism in human PBMCs (LPS + Bz-ATP induced IL-1β release, ELISA).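 For all read-outs here: PBMCs from donor human blood, with a further 1.5 h incubation of the cells in the assay.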 It counts as cell-based. The note with it: LPS 30 ng/ml, Bz-ATP 0.5 mM; for PBMC 10 μM (% control): compound 10 μM; for PBMC 1 μM (% control): compound 1 μM. (An ELISA detects its analyte on a solid surface through an enzyme-linked reagent.)

The target in assay [2] is rat P2X7 (Rattus norvegicus (Rat), UniProt Q64663). Kind of assay: Ca2+ flux (FLIPR) in 1321N1 cells expressing recombinant rat P2X7 channel.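 Note: Calcium-4 dye fluorescence change read 180 s after agonist addition, following 30 min cell preincubation with test compound.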 Conditions: 250 μM BzATP. Type of assay: cell-based. For orientation: Calcium assays in cells follow changes in intracellular calcium, usually with a dye or a luminescent sensor.
Chain of rat P2X7 (Q64663 whole entry): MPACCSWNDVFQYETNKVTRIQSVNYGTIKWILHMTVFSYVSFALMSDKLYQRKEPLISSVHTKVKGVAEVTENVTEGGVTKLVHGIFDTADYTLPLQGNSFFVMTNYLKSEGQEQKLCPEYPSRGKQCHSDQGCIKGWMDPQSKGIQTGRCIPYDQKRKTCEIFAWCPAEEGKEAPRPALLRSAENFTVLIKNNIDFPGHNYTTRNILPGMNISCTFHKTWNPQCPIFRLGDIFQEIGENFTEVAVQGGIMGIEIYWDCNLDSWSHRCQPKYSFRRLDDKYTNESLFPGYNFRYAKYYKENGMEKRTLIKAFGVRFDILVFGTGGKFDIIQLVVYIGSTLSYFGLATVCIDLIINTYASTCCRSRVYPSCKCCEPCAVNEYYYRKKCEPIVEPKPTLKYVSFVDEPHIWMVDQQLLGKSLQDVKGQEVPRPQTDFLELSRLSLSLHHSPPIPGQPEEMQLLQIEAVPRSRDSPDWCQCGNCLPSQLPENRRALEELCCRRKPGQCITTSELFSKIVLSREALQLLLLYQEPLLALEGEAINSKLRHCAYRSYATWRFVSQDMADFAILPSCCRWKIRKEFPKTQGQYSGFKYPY

Chain of P2X7 (Q99572 whole entry): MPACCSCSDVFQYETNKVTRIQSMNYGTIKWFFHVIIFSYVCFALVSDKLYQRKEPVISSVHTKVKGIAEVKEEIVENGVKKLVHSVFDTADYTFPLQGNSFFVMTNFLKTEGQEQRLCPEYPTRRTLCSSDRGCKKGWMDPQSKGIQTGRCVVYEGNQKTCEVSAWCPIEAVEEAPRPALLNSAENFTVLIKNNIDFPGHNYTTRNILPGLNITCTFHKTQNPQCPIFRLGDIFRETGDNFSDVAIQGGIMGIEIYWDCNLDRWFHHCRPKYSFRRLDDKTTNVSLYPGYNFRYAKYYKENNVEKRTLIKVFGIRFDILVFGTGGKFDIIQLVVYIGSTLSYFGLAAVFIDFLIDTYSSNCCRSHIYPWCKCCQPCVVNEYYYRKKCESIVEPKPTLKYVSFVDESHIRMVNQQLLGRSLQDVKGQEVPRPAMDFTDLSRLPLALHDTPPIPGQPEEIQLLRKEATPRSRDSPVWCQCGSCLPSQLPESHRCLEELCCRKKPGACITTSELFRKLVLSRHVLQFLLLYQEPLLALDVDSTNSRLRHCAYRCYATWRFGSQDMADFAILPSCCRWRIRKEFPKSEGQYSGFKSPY

As to `CCc1ccnc(-n2nnc3c2CCN(C(=O)c2cccc(C(F)(F)F)c2Cl)[C@@H]3C)n1` (single isomer, unassigned) [Example 294, (R*)-(2-chloro-3-(trifluoromethyl)phenyl)(1-(4-ethylpyrimidin-2-yl)-4-methyl-6,7-dihydro-1H-[1,2,3]triazolo[4,5-c]pyridin-5(4H)-yl)methanone], the “PBMC 10 μM (% control)” value in assay [1] is −8.1 % control. In addition, in assay [2], the IC50 stood at 0.0028 µM.

For the compound `Cc1nc(-n2nnc3c2CCN(C(=O)c2cccc(C(F)(F)F)c2Cl)[C@@H]3C)ncc1F` (single isomer, unassigned) [Example 305, (R*)-(2-chloro-3-(trifluoromethyl)phenyl)(1-(5-fluoro-4-methylpyrimidin-2-yl)-4-methyl-6,7-dihydro-1H-[1,2,3]triazolo[4,5-c]pyridin-5(4H)-yl)methanone], in assay [1], the “PBMC 10 μM (% control)” value was 0.9 % control. In addition, the IC50 in assay [2] was determined as 0.0197 µM.

Turning to `CCOc1cccnc1-n1nnc2c1CCN(C(=O)c1cccc(C(F)(F)F)c1Cl)[C@@H]2C` (single isomer, unassigned) [Example 316, (R*)-(2-chloro-3-(trifluoromethyl)phenyl)(1-(3-ethoxypyridin-2-yl)-4-methyl-6,7-dihydro-1H-[1,2,3]triazolo[4,5-c]pyridin-5(4H)-yl)methanone], the “PBMC 10 μM (% control)” value in assay [1] is on record as −9.6 % control. The half-inhibitory concentration (IC50) in assay [2] came out at 2.21 µM.

For the compound `CCOc1cccnc1-n1nnc2c1CCN(C(=O)c1cccc(C(F)(F)F)c1Cl)[C@H]2C` (single isomer, unassigned) [Example 317, (S*)-(2-chloro-3-(trifluoromethyl)phenyl)(1-(3-ethoxypyridin-2-yl)-4-methyl-6,7-dihydro-1H-[1,2,3]triazolo[4,5-c]pyridin-5(4H)-yl)methanone], the “PBMC 10 μM (% control)” value in assay [1] amounted to 4.8 % control. In assay [2], the IC50 was more than 10 µM.

On to `CC1c2ncn(-c3cnccn3)c2CCN1C(=O)c1cccc(C(F)(F)F)c1F` (centres unmarked) [Example 14, (2-Fluoro-3-(trifluoromethyl)phenyl)(4-methyl-1-(pyrazin-2-yl)-6,7-dihydro-1H-imidazo[4,5-c]pyridin-5(4H)-yl)methanone], for which, in assay [1], the “PBMC 1 μM (% control)” value was determined as 12.8 % control. In addition, in assay [2], the half-inhibitory concentration (IC50) worked out at 0.141 µM.

On to `CC1c2ncn(-c3ncccn3)c2CCN1C(=O)c1cccc(C(F)(F)F)c1Cl` (centres unmarked) [Example 23, (2-Chloro-3-(trifluoromethyl)phenyl)(4-methyl-1-(pyrimidin-2-yl)-6,7-dihydro-1H-imidazo[4,5-c]pyridin-5(4H)-yl)methanone], for which the “PBMC 10 μM (% control)” value in assay [1] worked out at 6.4 % control. Besides, the IC50 in assay [2] was 0.0906 µM.

`CCOC(=O)C1c2ncn(-c3ccccc3)c2CCN1C(=O)c1cccc(Cl)c1Cl` (centres unmarked) [Example 27, Ethyl 5-(2,3-dichlorobenzoyl)-1-phenyl-4,5,6,7-tetrahydro-1H-imidazo[4,5-c]pyridine-4-carboxylate]: the “PBMC 1 μM (% control)” value in assay [1] was 39.2 % control. Moreover, in assay [2], the IC50 was 1.89 µM.

In the case of `O=C(c1cccc(C(F)(F)F)c1Cl)N1CCc2c(ncn2-c2ccccn2)C1CF` (centres unmarked) [Example 32, (2-Chloro-3-(trifluoromethyl)phenyl)(4-(fluoromethyl)-1-(pyridin-2-yl)-6,7-dihydro-1H-imidazo[4,5-c]pyridin-5(4H)-yl)methanone], the “PBMC 10 μM (% control)” value in assay [1] came out at 1.9 % control. Further, the concentration for half-maximal inhibition (IC50) in assay [2] worked out at 0.0655 µM.

Turning to `CC1(C)c2ncn(-c3ccccc3)c2CCN1C(=O)c1cccc(C(F)(F)F)c1Cl` [Example 53, 5-{[2-Chloro-3-(trifluoromethyl)phenyl]carbonyl}-4,4-dimethyl-1-phenyl-4,5,6,7-tetrahydro-1H-imidazo[4,5-c]pyridine], the “PBMC 1 μM (% control)” value in assay [1] is on record as 99.0 % control. In addition, the IC50 in assay [2] came to 4.95 µM.

For the compound `O=C(c1cccc(C(F)(F)F)c1Cl)N1CCc2c(nnn2-c2ccccn2)C1` [Example 63, 5-{[2-Chloro-3-(trifluoromethyl)phenyl]carbonyl}-1-pyridin-2-yl-4,5,6,7-tetrahydro-1H-[1,2,3]triazolo[4,5-c]pyridine], the “PBMC 1 μM (% control)” value in assay [1] is listed as 12.6 % control. Further, the IC50 in assay [2] was found to be 1.09 µM.

For `O=C(c1cccc(C(F)(F)F)c1Cl)N1C=Cc2c(nnn2-c2cnccn2)C1c1ccccc1` (centres unmarked) [Example 76, 5-{[2-Chloro-3-(trifluoromethyl)phenyl]carbonyl}-4-phenyl-1-pyrazin-2-yl-4,5-dihydro-1H-[1,2,3]triazolo[4,5-c]pyridine], the “PBMC 1 μM (% control)” value in assay [1] came to 1.6 % control. The 50% inhibitory concentration (IC50) in assay [2] was 0.0324 µM.

Turning to `CC1c2nnn(-c3ncccc3F)c2CCN1C(=O)c1cccc(C(F)(F)F)c1Cl` (centres unmarked) [Example 84, 5-{[2-Chloro-3-(trifluoromethyl)phenyl]carbonyl}-1-(3-fluoropyridin-2-yl)-4-methyl-4,5,6,7-tetrahydro-1H-[1,2,3]triazolo[4,5-c]pyridine], in assay [1], the “PBMC 10 μM (% control)” value was determined as 8.5 % control. Besides, the IC50 in assay [2] was determined as 0.187 µM.

For `O=C(c1cccc(Cl)c1Cl)N1CCc2c(-c3ccncc3)n[nH]c2C1` [Example 115, 6-[(2,3-Dichlorophenyl)carbonyl]-3-pyridin-4-yl-4,5,6,7-tetrahydro-2H-pyrazolo[3,4-c]pyridine], the “PBMC 10 μM (% control)” value in assay [1] is recorded as −3.3 % control. Besides, the IC50 in assay [2] was more than 10 µM.

In the case of `CC1Cc2c(nnn2-c2ccccn2)CN1C(=O)c1cccc(Cl)c1Cl` (centres unmarked) [Example 120, 5-[(2,3-Dichlorophenyl)carbonyl]-6-methyl-1-pyridin-2-yl-4,5,6,7-tetrahydro-1H-[1,2,3]triazolo[4,5-c]pyridine], the “PBMC 10 μM (% control)” value in assay [1] is reported as −3.8 % control. Further, the half-maximal inhibitory concentration (IC50) in assay [2] amounted to 0.0556 µM.

As for `COc1ccnc(-n2nnc3c2CCN(C(=O)c2cccc(C(F)(F)F)c2Cl)C3)c1` [Example 136, (2-Chloro-3-(trifluoromethyl)phenyl)(1-(4-methoxypyridin-2-yl)-6,7-dihydro-1H-[1,2,3]triazolo[4,5-c]pyridin-5(4H)-yl)methanone], the “PBMC 10 μM (% control)” value in assay [1] is recorded as 5.3 % control. For the same compound, the IC50 in assay [2] worked out at 0.133 µM.

For the compound `CC1Cc2c(nnn2-c2cc(F)ccn2)CN1C(=O)c1cccc(Cl)c1Cl` (centres unmarked) [Example 173, 5-[(2,3-Dichlorophenyl)carbonyl]-1-(4-fluoropyridin-2-yl)-6-methyl-4,5,6,7-tetrahydro-1H-[1,2,3]triazolo[4,5-c]pyridine], the “PBMC 10 μM (% control)” value in assay [1] is listed as 8.8 % control. Moreover, in assay [2], the 50% inhibitory concentration (IC50) was found to be 0.0102 µM.

For the compound `Cc1cc(C)nc(-n2nnc3c2CCN(C(=O)c2cccc(Cl)c2Cl)C3C)n1` (centres unmarked) [Example 179, (2,3-dichlorophenyl)(1-(4,6-dimethylpyrimidin-2-yl)-4-methyl-6,7-dihydro-1H-[1,2,3]triazolo[4,5-c]pyridin-5(4H)-yl)methanone], in assay [1], the “PBMC 10 μM (% control)” value was −4.3 % control. Further, the IC50 in assay [2] is more than 10 µM.

Consider `Cc1nc(-n2nnc3c2CCN(C(=O)c2cccc(C(F)(F)F)c2Cl)C3C)ncc1F` (centres unmarked) [Example 230, (2-chloro-3-(trifluoromethyl)phenyl)(1-(5-fluoro-4-methylpyrimidin-2-yl)-4-methyl-6,7-dihydro-1H-[1,2,3]triazolo[4,5-c]pyridin-5(4H)-yl)methanone], for which the “PBMC 10 μM (% control)” value in assay [1] turned out to be 2.9 % control. Also, in assay [2], the half-inhibitory concentration (IC50) was found to be 0.0895 µM.

In the case of `CC1CN(C(=O)c2cccc(C(F)(F)F)c2Cl)C(C)c2nnn(-c3ccccc3)c21` (centres unmarked) [Example 241, (2-Chloro-3-(trifluoromethyl)phenyl)(4,7-dimethyl-1-phenyl-6,7-dihydro-1H-[1,2,3]triazolo[4,5-c]pyridin-5(4H)-yl)methanone], the “PBMC 10 μM (% control)” value in assay [1] is given as 6.5 % control. In addition, the half-maximal inhibitory concentration (IC50) in assay [2] was more than 10 µM.

For the compound `Cc1cc(C)nc(-n2nnc3c2CCN(C(=O)c2cccc(C(F)(F)F)c2Cl)C3C)n1` (centres unmarked) [Example 253, (2-Chloro-3-(trifluoromethyl)phenyl)(1-(4,6-dimethylpyrimidin-2-yl)-4-methyl-6,7-dihydro-1H-[1,2,3]triazolo[4,5-c]pyridin-5(4H)-yl)methanone], the “PBMC 10 μM (% control)” value in assay [1] is −2.6 % control. Moreover, in assay [2], the half-inhibitory concentration (IC50) turned out to be 12.7 µM.

Regarding `CCc1cccnc1-n1nnc2c1CCN(C(=O)c1cccc(C(F)(F)F)c1Cl)C2C` (centres unmarked) [Example 254, (2-Chloro-3-(trifluoromethyl)phenyl)(1-(3-ethylpyridin-2-yl)-4-methyl-6,7-dihydro-1H-[1,2,3]triazolo[4,5-c]pyridin-5(4H)-yl)methanone], the “PBMC 10 μM (% control)” value in assay [1] is on record as 0.9 % control. For the same compound, in assay [2], the IC50 was 4.26 µM.

For the compound `CCOc1cccnc1-n1nnc2c1CCN(C(=O)c1cccc(C(F)(F)F)c1Cl)C2C` (centres unmarked) [Example 258, (2-Chloro-3-(trifluoromethyl)phenyl)(1-(3-ethoxypyridin-2-yl)-4-methyl-6,7-dihydro-1H-[1,2,3]triazolo[4,5-c]pyridin-5(4H)-yl)methanone], the “PBMC 10 μM (% control)” value in assay [1] is −3.2 % control. Besides, the IC50 in assay [2] amounted to 4.84 µM.

In the case of `CC1c2ncn(-c3ccc(F)cn3)c2CCN1C(=O)c1cccc(C(F)(F)F)c1F` (centres unmarked) [Example 262, (2-fluoro-3-(trifluoromethyl)phenyl)(1-(5-fluoropyridin-2-yl)-4-methyl-6,7-dihydro-1H-imidazo[4,5-c]pyridin-5(4H)-yl)methanone], in assay [1], the “PBMC 10 μM (% control)” value was −3.6 % control. Also, the IC50 in assay [2] came out at 1.55 µM.

As to `Cc1ccnc(-n2nnc3c2CCN(C(=O)c2cccc(C(F)(F)F)c2F)C3C)n1` (centres unmarked) [Example 269, (2-fluoro-3-(trifluoromethyl)phenyl)(4-methyl-1-(4-methylpyrimidin-2-yl)-6,7-dihydro-1H-[1,2,3]triazolo[4,5-c]pyridin-5(4H)-yl)methanone], in assay [1], the “PBMC 10 μM (% control)” value worked out at 16.3 % control. Moreover, the IC50 in assay [2] turned out to be 0.0206 µM.

In the case of `O=C(c1ccc(Cl)cc1Cl)N1CCc2c(nnn2-c2cnccn2)C1` [Example 277, (2,4-dichlorophenyl)(1-(pyrazin-2-yl)-6,7-dihydro-1H-[1,2,3]triazolo[4,5-c]pyridin-5(4H)-yl)methanone], the “PBMC 10 μM (% control)” value in assay [1] is given as −3.7 % control. Further, in assay [2], the IC50 is 1.92 µM.

A word on the IC50: it is the concentration at which inhibition is half-maximal.
